Assay: Virosomal fusion activity before and after lyophilization (FRET assay)
Settings: cationic lipid as integral virosomal membrane component; after lyophilization and reconstitution
Protocol: FRET Assay: For in vitro fusion measurements by fluorescence resonance energy transfer (FRET) (Struck et al., Biochemistry 20(14):4093-99, 1981; Loyter et al., Methods Biochem. Anal. 33:129-64, 1988), the following assay was developed: 0.75 mol % of Bodipy 530/550-DHPE and 0.25 mol % of N-Rh-DHPE were incorporated into liposomes consisting of PC/DPPG (70:30). Fluorescence measurements were carried out at discrete temperatures between 4° C. and 42° C. in 5 mM sodium phosphate buffer pH 7.5, 100 mM NaCl, in a final volume of 0.8 ml in 2.5 ml PMMA micro-cuvettes (VWR, Switzerland) under continuous stirring. […] The increase in fluorescence was recorded every 5 seconds at excitation and emission wavelengths of 538 nm and 558 nm, respectively, with an excitation slit of 2.5 nm and an emission slit of 15.0 nm. Measurements were carried out with an LS 55 Luminescence spectrometer (Perkin Elmer Instruments, USA) equipped with a thermostated cuvette holder and a magnetic stirring device. The maximal fluorescence at infinite probe dilution was reached after addition of Triton X-100 (0.5% v/v final concentration). For calibration of the fluorescence scale the initial residual fluorescence of the liposomes was set to zero and the fluorescence at infinite probe dilution to 100%.

Structure (SMILES)	preservation of virosomal fusion-activity
CC(C)CCC[C@@H](C)[C@H]1CC[C@H]2[C@@H]3CC=C4C[C@@H](OC(=O)NCCN(C)C)CC[C@]4(C)[C@H]3CC[C@]12C.Cl [DC-Chol, 3β[N-(N′,N′-dimethylammonioethane)-carbamoyl]cholesterol chloride]	superior properties in preserving virosomal fusion-activity
CC(C)CCC[C@@H](C)[C@H]1CC[C@H]2[C@@H]3CC=C4C[C@@H](OC(=O)NCC[N+](C)(C)C)CC[C@]4(C)[C@H]3CC[C@]12C.[Cl-] [TC-Chol, 3β[N-(N′,N′,N′-trimethylammonioethane)-carbamoyl]cholesterol chloride]	superior properties in preserving virosomal fusion-activity
